Data published in patent publication US10945992B1, “Dosage forms of rofecoxib and related methods” (Tremeau Pharmaceuticals, Inc., priority 2019, dated 2021).
Like-named read-outs stand apart in the source and are kept apart here.

Assay: TRM-201-PK-102 single-dose four-period crossover pharmacokinetic study, fasted healthy subjects
Format: in vivo, human
Settings: human, plasma, oral
Protocol: A Single-Dose, Open-Label, Phase 1, Four-Period Crossover Pharmacokinetic Study of TRM-201 (Rofecoxib) 12.5 mg, 17.5 mg, 20 mg and 25 mg Administered to Healthy Subjects in a Fasting State, with Comparison to Historical Pharmacokinetic Parameters of Previously Marketed Rofecoxib (“TRM-201-PK-102” or “102 PK Study”)
This was a single-center, open-label four-period crossover PK study of TRM-201. The study included 24 subjects who received TRM-201 as a single dose of 12.5 mg, 17.5 mg, 20 mg and 25 mg to assess the PK of TRM-201 in healthy volunteers under fasted conditions. Subjects were randomized to one of four treatment sequences. The PK data from the current study along with the data from the TRM-201-PK-101 study (Example 4) was used to compare to historical pharmacokinetic parameters of previously marketed rofecoxib, all in a fasted state.
In each of the four dosing periods, subjects fasted overnight for at least 10 hours before study drug dosing. While fasting, subjects had nothing to eat and only water to drink. Water was permitted as desired, except for the period between 1 hour before and 1 hour after study drug dosing (excepting as permitted for dosing). After the 2-hour PK blood sample, subjects were allowed one 250-mL cup of clear apple juice. After the 4-hour PK blood sample, subjects were served a light lunch. Following the light lunch, subjects received standardized meals according to the clinic's standard procedures that were scheduled at consistent times and at least 15 minutes before or 15 minutes after PK sampling time points. Blood was withdrawn for PK analysis at predefined time points. For each dosing period the last time point was 120 hours after dosing with study drug (Day 6). After the 120 hour PK sample, the EOP procedures was completed, subjects remained in-clinic for the in-between dose period day (Days 7, 14, and 21) and began the next dosing period starting with an overnight fast for at least 10 hours on Day −1 of the subsequent dosing period. Pharmacokinetic and safety endpoints were evaluated.
The study drug, TRM-201, was an immediate-release tablet that contained 12.5 mg rofecoxib, 17.5 mg rofecoxib, 20 mg rofecoxib or 25 mg rofecoxib. The 7.25-mm diameter tablets were off-white, round, and uncoated with no markings. TRM-201 tablets were for oral administration.
For each sample, approximately 3 mL of blood were drawn. The samples were obtained by a straight stick or via an in-dwelling intravenous (IV) catheter in a forearm vein. Additional details for the collection, processing, storage, and shipping of PK samples were provided in the study manual.
Pharmacokinetic samples will be analyzed using a validated assay for rofecoxib in human plasma. Assay results and validation details will be provided in a separate bioanalytical report. The following PK parameters for rofecoxib will be calculated as primary endpoints using standard noncompartmental methods: AUC0-∞ and Cmax. Secondary endpoints include Tmax, and t1/2. Additional PK parameters (e.g., CL/F, and Vd/F) will also be calculated using standard noncompartmental methods.
Individual plasma concentrations for rofecoxib and PK sampling time deviation data will be presented in a data listing. Plasma concentration data will be summarized by time point using the following descriptive statistics: number of subjects, arithmetic mean, SD, coefficient of variation (CV), geometric mean, natural-log-scale SD, geometric CV, median, minimum, and maximum. Individual plasma concentration versus actual time profiles were presented on both linear and semilogarithmic scales. Additionally, arithmetic mean concentration versus scheduled time profiles were presented on linear scales and geometric means on semilogarithmic scales.
The PK parameters of rofecoxib were analyzed based on the actual sampling times. […]

[1] = 20 mg, read-out: arithmetic mean plasma concentration
[2] = 20 mg, read-out: geometric mean plasma concentration

`CS(=O)(=O)c1ccc(C2=C(c3ccccc3)C(=O)OC2)cc1` [TRM-201, 4-[4-(methylsulfonyl)phenyl]-3-phenyl-2(5H)-furanone] showed an AUC(0-inf) (20 mg, 102 study only, read-out: arithmetic mean AUC0-∞) of 3750 ng·h/mL, a Cmax (20 mg, 102 study only, read-out: arithmetic mean Cmax) of 277 ng/mL and an AUC(0-inf) (20 mg, 102 study only, read-out: geometric mean AUC0-∞) of 3550 ng·h/mL. It also gave a Cmax (20 mg, 102 study only, read-out: geometric mean Cmax) of 259 ng/mL, an AUC(0-inf) (20 mg, 102 study, 18-40 years, read-out: arithmetic mean AUC0-∞) of 3580 ng·h/mL and a Cmax (20 mg, 102 study, 18-40 years, read-out: arithmetic mean Cmax) of 308 ng/mL. It also gave an AUC(0-inf) (20 mg, 102 study, 18-40 years, read-out: geometric mean AUC0-∞) of 3420 ng·h/mL, a Cmax (20 mg, 102 study, 18-40 years, read-out: geometric mean Cmax) of 289 ng/mL and an AUC(0-inf) (20 mg, 102 study, 41-52 years, read-out: arithmetic mean AUC0-∞) of 3730 ng·h/mL. The Cmax (20 mg, 102 study, 41-52 years, read-out: arithmetic mean Cmax) was 262 ng/mL, the AUC(0-inf) (20 mg, 102 study, 41-52 years, read-out: geometric mean AUC0-∞) was 3360 ng·h/mL and the Cmax (20 mg, 102 study, 41-52 years, read-out: geometric mean Cmax) was 242 ng/mL. The AUC(0-inf) (20 mg, 102 study, 53-60 years, read-out: arithmetic mean AUC0-∞) was 3940 ng·h/mL, the Cmax (20 mg, 102 study, 53-60 years, read-out: arithmetic mean Cmax) was 260 ng/mL and the AUC(0-inf) (20 mg, 102 study, 53-60 years, read-out: geometric mean AUC0-∞) was 3880 ng·h/mL. The Cmax (20 mg, 102 study, 53-60 years, read-out: geometric mean Cmax) was 249 ng/mL, the AUC(0-inf) (20 mg, 102 study, Black or African-American subjects, read-out: arithmetic mean AUC0-∞) was 3380 ng·h/mL and the Cmax (20 mg, 102 study, Black or African-American subjects, read-out: arithmetic mean Cmax) was 298 ng/mL. It also gave an AUC(0-inf) (20 mg, 102 study, Black or African-American subjects, read-out: geometric mean AUC0-∞) of 3300 ng·h/mL, a Cmax (20 mg, 102 study, Black or African-American subjects, read-out: geometric mean Cmax) of 295 ng/mL and an AUC(0-inf) (20 mg, 102 study, Hispanic or Latino subjects, read-out: arithmetic mean AUC0-∞) of 3840 ng·h/mL. The Cmax (20 mg, 102 study, Hispanic or Latino subjects, read-out: arithmetic mean Cmax) was 281 ng/mL, the AUC(0-inf) (20 mg, 102 study, Hispanic or Latino subjects, read-out: geometric mean AUC0-∞) was 3630 ng·h/mL and the Cmax (20 mg, 102 study, Hispanic or Latino subjects, read-out: geometric mean Cmax) was 258 ng/mL. For the same molecule, the AUC(0-inf) (20 mg, 102 study, White subjects, read-out: arithmetic mean AUC0-∞) was 3850 ng·h/mL, the Cmax (20 mg, 102 study, White subjects, read-out: arithmetic mean Cmax) was 271 ng/mL and the AUC(0-inf) (20 mg, 102 study, White subjects, read-out: geometric mean AUC0-∞) was 3610 ng·h/mL. For the same molecule, the Cmax (20 mg, 102 study, White subjects, read-out: geometric mean Cmax) was 250 ng/mL, the AUC(0-inf) (20 mg, 102 study, body weight 47-70 kg, read-out: arithmetic mean AUC0-∞) was 3650 ng·h/mL and the Cmax (20 mg, 102 study, body weight 47-70 kg, read-out: arithmetic mean Cmax) was 336 ng/mL. It also gave an AUC(0-inf) (20 mg, 102 study, body weight 47-70 kg, read-out: geometric mean AUC0-∞) of 3340 ng·h/mL, a Cmax (20 mg, 102 study, body weight 47-70 kg, read-out: geometric mean Cmax) of 307 ng/mL and an AUC(0-inf) (20 mg, 102 study, body weight 70.1-77 kg, read-out: arithmetic mean AUC0-∞) of 4500 ng·h/mL. It also gave a Cmax (20 mg, 102 study, body weight 70.1-77 kg, read-out: arithmetic mean Cmax) of 259 ng/mL, an AUC(0-inf) (20 mg, 102 study, body weight 70.1-77 kg, read-out: geometric mean AUC0-∞) of 4400 ng·h/mL and a Cmax (20 mg, 102 study, body weight 70.1-77 kg, read-out: geometric mean Cmax) of 248 ng/mL. For the same molecule, the AUC(0-inf) (20 mg, 102 study, body weight 77.1-90 kg, read-out: arithmetic mean AUC0-∞) was 3250 ng·h/mL, the Cmax (20 mg, 102 study, body weight 77.1-90 kg, read-out: arithmetic mean Cmax) was 238 ng/mL and the AUC(0-inf) (20 mg, 102 study, body weight 77.1-90 kg, read-out: geometric mean AUC0-∞) was 3170 ng·h/mL. For the same molecule, the Cmax (20 mg, 102 study, body weight 77.1-90 kg, read-out: geometric mean Cmax) was 231 ng/mL, the AUC(0-inf) (20 mg, 102 study, non-Hispanic or non-Latino subjects, read-out: arithmetic mean AUC0-∞) was 3660 ng·h/mL and the Cmax (20 mg, 102 study, non-Hispanic or non-Latino subjects, read-out: arithmetic mean Cmax) was 272 ng/mL. It also gave an AUC(0-inf) (20 mg, 102 study, non-Hispanic or non-Latino subjects, read-out: geometric mean AUC0-∞) of 3470 ng·h/mL, a Cmax (20 mg, 102 study, non-Hispanic or non-Latino subjects, read-out: geometric mean Cmax) of 260 ng/mL and a concentration at 15 minutes [1] of 5.75 ng/mL. For the same molecule, the concentration at 15 minutes [2] was 1.16 ng/mL, the concentration at 45 minutes [1] was 121 ng/mL and the concentration at 45 minutes [2] was 72.6 ng/mL. For the same molecule, the AUC(0-inf) (25 mg, 102 study only, read-out: arithmetic mean AUC0-∞) was 4630 ng·h/mL, the Cmax (25 mg, 102 study only, read-out: arithmetic mean Cmax) was 349 ng/mL and the AUC(0-inf) (25 mg, 102 study only, read-out: geometric mean AUC0-∞) was 4490 ng·h/mL. It also gave a Cmax (25 mg, 102 study only, read-out: geometric mean Cmax) of 341 ng/mL, an AUC(0-inf) (25 mg, 102 study, 18-40 years, read-out: arithmetic mean AUC0-∞) of 4140 ng·h/mL and a Cmax (25 mg, 102 study, 18-40 years, read-out: arithmetic mean Cmax) of 366 ng/mL. The AUC(0-inf) (25 mg, 102 study, 18-40 years, read-out: geometric mean AUC0-∞) was 4050 ng·h/mL, the Cmax (25 mg, 102 study, 18-40 years, read-out: geometric mean Cmax) was 356 ng/mL and the AUC(0-inf) (25 mg, 102 study, 41-52 years, read-out: arithmetic mean AUC0-∞) was 4810 ng·h/mL.
